Data as given in PMC9997437, “Initiation and modulation of Tau protein phase separation by the drug suramin” (Scientific Reports, 2023).

Biological target: T1, Tau (Homo sapiens, UniProt P10636)
T1 construct: gene MAPT; full-length wildtype Tau (hTau40; 441 aa; 2N4R isoform, UniprotKB P10636-8)
Experiment: microscale thermophoresis (MST) with fluorescently labelled Tau; supported by trDLS, microscopy and TEM of Tau:suramin condensates
Assay type: binding

T1 sequence (P10636 2-441 isoform P10636-8): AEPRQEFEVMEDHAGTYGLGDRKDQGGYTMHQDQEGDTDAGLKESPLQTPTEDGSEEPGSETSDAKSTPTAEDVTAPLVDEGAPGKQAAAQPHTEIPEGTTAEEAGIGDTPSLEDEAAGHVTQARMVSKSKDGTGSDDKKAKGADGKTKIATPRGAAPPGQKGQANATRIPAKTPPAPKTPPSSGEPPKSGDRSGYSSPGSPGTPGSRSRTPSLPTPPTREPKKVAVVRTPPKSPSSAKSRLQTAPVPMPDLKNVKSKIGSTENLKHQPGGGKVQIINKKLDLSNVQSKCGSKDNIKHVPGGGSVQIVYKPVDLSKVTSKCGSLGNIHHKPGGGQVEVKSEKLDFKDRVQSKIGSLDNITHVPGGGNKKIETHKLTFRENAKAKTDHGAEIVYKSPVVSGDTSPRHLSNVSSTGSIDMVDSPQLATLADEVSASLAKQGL

SMILES: Cc1ccc(C(=O)Nc2ccc(S(=O)(=O)O)c3cc(S(=O)(=O)O)cc(S(=O)(=O)O)c23)cc1NC(=O)c1cccc(NC(=O)Nc2cccc(C(=O)Nc3cc(C(=O)Nc4ccc(S(=O)(=O)O)c5cc(S(=O)(=O)O)cc(S(=O)(=O)O)c45)ccc3C)c2)c1 [suramin]
- Kd: ~17 µM
